# Assay results reported in PMC5384220 (Nature Communications, 2017).
# Molecular target: T1, full-length KDM4A (residues 1-1,064) (Homo sapiens, UniProt O75164)
# T1 construct: full-length KDM4A (residues 1–1,064) purified from HEK293T cells; made in house; host or cells: HEK293T (transient transfection, anti-FLAG M2 immunoprecipitation)
# T1 sequence (O75164 1-1064): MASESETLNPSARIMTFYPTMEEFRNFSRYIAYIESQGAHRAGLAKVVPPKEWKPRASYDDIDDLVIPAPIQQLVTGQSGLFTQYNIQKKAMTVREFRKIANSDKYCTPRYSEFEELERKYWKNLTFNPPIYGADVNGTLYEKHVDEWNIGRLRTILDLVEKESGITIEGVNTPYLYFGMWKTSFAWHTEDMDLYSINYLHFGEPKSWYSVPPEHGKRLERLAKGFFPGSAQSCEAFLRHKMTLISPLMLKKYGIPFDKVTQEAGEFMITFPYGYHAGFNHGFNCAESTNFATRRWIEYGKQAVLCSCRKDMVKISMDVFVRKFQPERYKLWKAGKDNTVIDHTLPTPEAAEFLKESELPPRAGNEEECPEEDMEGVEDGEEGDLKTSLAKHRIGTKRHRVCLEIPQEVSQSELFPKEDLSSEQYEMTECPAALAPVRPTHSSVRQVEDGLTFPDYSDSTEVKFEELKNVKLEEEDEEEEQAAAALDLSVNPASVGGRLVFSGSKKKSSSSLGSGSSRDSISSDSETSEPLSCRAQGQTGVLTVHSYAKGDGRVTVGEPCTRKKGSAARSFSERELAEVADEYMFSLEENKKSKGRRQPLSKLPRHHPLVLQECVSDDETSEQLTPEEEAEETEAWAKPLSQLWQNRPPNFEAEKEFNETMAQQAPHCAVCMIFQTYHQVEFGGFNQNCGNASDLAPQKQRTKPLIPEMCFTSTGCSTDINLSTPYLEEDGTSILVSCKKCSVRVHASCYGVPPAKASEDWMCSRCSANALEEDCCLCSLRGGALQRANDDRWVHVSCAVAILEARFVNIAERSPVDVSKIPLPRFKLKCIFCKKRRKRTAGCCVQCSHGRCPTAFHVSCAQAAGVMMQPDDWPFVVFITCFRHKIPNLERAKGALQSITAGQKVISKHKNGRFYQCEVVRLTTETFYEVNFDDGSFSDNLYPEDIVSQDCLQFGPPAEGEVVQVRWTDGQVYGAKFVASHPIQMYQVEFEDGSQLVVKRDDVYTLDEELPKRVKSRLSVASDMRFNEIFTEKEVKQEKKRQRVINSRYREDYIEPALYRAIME
# Assay: MALDI-TOF MS demethylation assay with full-length KDM4A
# Assay type: biochemical
# Details: CP2 10 µM; H3K9me3 and H3K36me3 peptides 10 µM; 1 h 37°C
# Source text: N-terminally Hexa-His-tagged KDM4A (His-KDM4A1–359) was produced and purified as described. The KDM4A gene encoding for KDM4A protein (residues 1-359) was cloned into the pNIC-Bio3 plasmid, which incorporates a C-terminal AviTag and expressed with biotin supplement in BL21(DE3)Rosetta co-transfected with pCDF-BirA[32]. His-KDM4A with biotin (His-KDM4A-Bio) was purified using nickel affinity chromatography. Complete (>95%) biotinylation of KDM4A was confirmed using electrospray ionization–MS (Waters Micromass LCT Premier). […] The full-length FLAG-tagged KDM4A1–1,064 (ref. [15]) was produced in HEK293T cells. HEK293T cells were grown to 80% confluency in DMEM medium (Sigma) supplemented with Glutamax (Life Technologies), 10% fetal bovine serum (FBS, Sigma). FLAG-tagged KDM4A was transfected using polyethyleneimine. Cells were harvested after 48 h, washed with PBS (Sigma) and lysed (45 min, 4 °C) in 50 mM HEPES (pH 7.5), 150 mM NaCl buffer containing protease inhibitor cocktail (Sigma), 10 μM DNase (Sigma) and 0.1% NP40 (Roche). FLAG-tagged KDM4A was purified by immunoprecipitation using anti-FLAG M2 magnetic beads (Sigma) and washed in 50 mM HEPES (pH 7.5) 150 mM NaCl. The final wash was performed in 50 mM HEPES (pH 7.5) and the resin was used as an enzyme source for the full-length KDM4A.
# KDM4A in vitro. […]
# (pH 7.5) at 37°C for 1 h. The assay products were analysed by MALDI-TOF MS. […]
sequence,measurement,value
DYVYNTRSGWRWYTC [CP2],Inhibition of demethylation by full-length KDM4A,inhibits
